Results published in patent US8268823B2, “Medical use of triazine derivatives” (University of Greenwich, priority 2006, dated 2012).
Where “and” joins values, the source holds several entries; their conditions need not be identical. Equal entries are not always repeated. Structures can show the parent of a compound that is named as a salt. Where two headings read alike, the source gives them in different places.

How the values were obtained:
sodium channel [1] = test: veratrine-evoked uptake of [14C]guanidine into rat forebrain synaptosomes ([14C]guanidine flux); assay type: biochemical; conditions: for Hill (uptake of [14C]guanidine): slope
sodium channel [2] = assay type: binding, rat
[3] = target: T1, DiHydroFolate Reductase (DHFR) (Rattus norvegicus, UniProt Q920D2); test: inhibition of binding of [3H]methotrexate to rat liver homogenate supernatant; conditions: for inhibition at 10 µM / inhibition at 99 µM / inhibition at 50 µM: read-out: [3H]methotrexate binding Inhibition (% @ assay conc'n); for inhibition at 99 µM: assay concentration 99 μM; for inhibition at 50 µM: assay concentration 50 μM
T1 construct: from tissue; host or cells: rat liver homogenate supernatant (47,500 x g)
T1 sequence (Q920D2 1-187): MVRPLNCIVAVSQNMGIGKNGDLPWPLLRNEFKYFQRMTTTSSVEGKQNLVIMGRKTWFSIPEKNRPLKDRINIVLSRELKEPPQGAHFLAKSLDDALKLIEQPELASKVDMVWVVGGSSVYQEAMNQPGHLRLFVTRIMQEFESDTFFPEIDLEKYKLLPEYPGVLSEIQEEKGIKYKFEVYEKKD

hERG potassium channel [4] = target: T2, hERG potassium channel (Homo sapiens, UniProt Q12809)
T2 sequence (Q12809 whole entry): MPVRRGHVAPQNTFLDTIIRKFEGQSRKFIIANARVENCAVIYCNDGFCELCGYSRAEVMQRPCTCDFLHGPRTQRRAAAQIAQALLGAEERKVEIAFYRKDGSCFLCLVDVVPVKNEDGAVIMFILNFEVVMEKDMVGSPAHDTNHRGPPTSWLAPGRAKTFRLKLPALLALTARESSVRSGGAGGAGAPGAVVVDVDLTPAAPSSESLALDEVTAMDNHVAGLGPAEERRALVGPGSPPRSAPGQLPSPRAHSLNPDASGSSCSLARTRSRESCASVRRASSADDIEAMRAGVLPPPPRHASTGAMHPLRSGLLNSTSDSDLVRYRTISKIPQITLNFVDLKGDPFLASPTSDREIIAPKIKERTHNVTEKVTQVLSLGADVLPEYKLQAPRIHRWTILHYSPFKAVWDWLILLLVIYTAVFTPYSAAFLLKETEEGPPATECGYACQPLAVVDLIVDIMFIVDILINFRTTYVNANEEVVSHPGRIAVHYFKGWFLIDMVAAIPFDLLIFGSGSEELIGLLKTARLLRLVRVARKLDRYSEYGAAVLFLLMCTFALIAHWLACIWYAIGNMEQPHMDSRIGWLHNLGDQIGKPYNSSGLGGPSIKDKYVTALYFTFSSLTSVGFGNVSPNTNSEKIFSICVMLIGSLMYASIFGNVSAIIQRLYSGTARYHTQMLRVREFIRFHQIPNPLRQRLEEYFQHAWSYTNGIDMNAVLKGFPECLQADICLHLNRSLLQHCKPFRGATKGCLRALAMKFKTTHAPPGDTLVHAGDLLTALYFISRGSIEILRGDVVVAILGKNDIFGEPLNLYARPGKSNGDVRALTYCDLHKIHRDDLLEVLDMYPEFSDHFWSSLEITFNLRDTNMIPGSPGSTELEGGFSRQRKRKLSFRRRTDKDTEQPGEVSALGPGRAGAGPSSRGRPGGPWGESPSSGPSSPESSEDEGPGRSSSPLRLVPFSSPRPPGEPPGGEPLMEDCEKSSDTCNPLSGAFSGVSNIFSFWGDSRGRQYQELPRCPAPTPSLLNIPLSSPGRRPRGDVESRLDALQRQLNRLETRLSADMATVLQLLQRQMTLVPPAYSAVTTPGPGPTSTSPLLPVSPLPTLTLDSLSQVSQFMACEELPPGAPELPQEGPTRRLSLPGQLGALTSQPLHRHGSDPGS

hERG potassium channel [5] = target: T2, hERG potassium channel; test: in vitro
hERG potassium channel [6] = target: T2, hERG potassium channel; test: inhibition of binding of [3H]astemizole to cell membranes expressing hERG
[7] = Table 3, rat forebrain synaptosomes, read-out: [14C]guanidine flux Mean (IC50: μM)
[8] = Table 4, tissue prep'n Homogenate, read-out: [3H]BTX-B binding Mean (IC50: μM)
[9] = Table 4, tissue prep'n Synaptosomes, read-out: [3H]BTX-B binding Mean (IC50: μM)
[10] = Table 8, read-out: IC50 (μM) (uptake of [14C]guanidine)

## CCn1nc(-c2cc(Cl)ccc2Cl)c(N)nc1=N (as salt: methanesulfonate) [Example 49, 5(3)-Amino-6-(2,5-dichlorophenyl)-2,3(2,5)-dihydro-3(5)-imino-2-ethyl-1,2,4-triazine methanesulfonate]
other
  melting point: 264 to 265 °C

## Cn1nc(-c2cc(Cl)cc(Cl)c2)c(N)nc1=N (as salt: methanesulfonate) [Example 53, 5(3)-Amino-6-(3,5-dichlorophenyl)-2,3(2,5)-dihydro-3(5)-imino-2-methyl-1,2,4-triazine methanesulfonate]
other
  melting point: 234 to 236 °C

## CCn1nc(-c2cc(Cl)cc(Cl)c2)c(N)nc1=N (as salt: methanesulfonate) [Example 54, 5(3)-Amino-6-(3,5-dichlorophenyl)-2,3(2,5)-dihydro-3(5)-imino-2-ethyl-1,2,4-triazine methanesulfonate]
other
  melting point: 217 to 219 °C

## N=c1nc(N)c(-c2cc(Cl)cc(Cl)c2Cl)nn1CCF (as salt: methanesulfonate) [Example 55, 5(3)-Amino-6-(2,3,5-trichlorophenyl)-2,3(2,5)-dihydro-3(5)-imino-2-(2-fluoroethyl)-1,2,4-triazine methanesulfonate]
other
  melting point: 212 to 214 °C

## CC(C)n1nc(-c2cccc(Cl)c2Cl)c(N)nc1=N [Example 4, 5(3)-Amino-6-(2,3-dichlorophenyl)-2,3(2,5)-dihydro-3(5)-imino-2-isopropyl-1,2,4-triazine]
Sodium channel [1]; [7]
  IC50: 4 µM
Sodium channel [2]; [8]
  IC50: 0.6 µM
Sodium channel [2]; [9]
  IC50: 1.5 µM
[3]; assay concentration 10 μM
  inhibition at 10 µM: -1%
[3]
  inhibition at 99 µM: 0%
hERG potassium channel [4]; human
  hERG / [14C]guanidine flux selectivity: 6.7
hERG potassium channel [5]; hERG % inhibition @ 10 μM
  inhibition at 10 µM: 35%
hERG potassium channel [5]; hERG / [14C]guanidine flux selectivity
  selectivity ratio: 6.6
hERG potassium channel [6]
  IC50: 18.6 µM and 19.4 µM

## N=c1nc(N)c(-c2cccc(Cl)c2Cl)nn1CCO [Example 5, 5(3)-Amino-6-(2,3-dichlorophenyl)-2,3(2,5)-dihydro-3(5)-imino-2-(2-hydroxyethyl)-1,2,4-triazine]
Sodium channel [1]; [7]
  IC50: 172 µM
Sodium channel [1]; Table 5, read-out: [14C]guanidine flux IC50
  IC50: 2.1 µM
Sodium channel [2]; [8]
  IC50: 7.2 µM
Sodium channel [2]; [9]
  IC50: 25.7 µM
Sodium channel [2]; Table 5, Synaptosome data, read-out: [3H]BTX-B IC50
  IC50: 1.7 µM
[3]; assay concentration 10 μM
  [3H]methotrexate binding Inhibition (% @ assay conc'n): −1%
[3]; assay concentration 101 μM
  [3H]methotrexate binding Inhibition (% @ assay conc'n): 1%
hERG potassium channel [4]
  IC50: 7.2 µM
  hERG / [14C]guanidine flux selectivity: 3.5
hERG potassium channel [6]; ratio of extrapolated hERG IC50 to [3H]BTX-B IC50 (synaptosomes)
  hERG / [3H]BTX-B selectivity: 4.3

## COc1ccc(Cn2nc(-c3cccc(Cl)c3Cl)c(N)nc2=N)cc1 [Example 19, 5(3)-Amino-6-(2,3-dichlorophenyl)-2,3(2,5)-dihydro-3(5)-imino-2-(4-methoxy)phenylmethyl-1,2,4-triazine]
Sodium channel [1]; [7]
  IC50: 5 µM
[3]; assay concentration 10 μM
  inhibition at 10 µM: -2%
[3]
  inhibition at 99 µM: -3%
other
  melting point: 212 to 215 °C

## Nc1nnc(-c2cccc(F)c2Cl)c(N)n1 [Example 40, 2-chloro-3-fluorophenyl-1,2,4-triazine-3,5-diamine]
Sodium channel [1]; [7]
  IC50: 834 µM
Sodium channel [2]; [9]
  IC50: 283 µM
[3]; rat liver supernatant
  IC50: 589 µM
other
  melting point: 244 to 246 °C

## Nc1nnc(-c2cc(Cl)ccc2Cl)c(N)n1 [Example 41, 3,5-Diamino-6-(2,5-dichlorophenyl)-1,2,4-triazine]
Sodium channel [1]; [7]
  IC50: 525 µM
[3]
  inhibition at 50 µM: 93%
other
  melting point: 228 to 230 °C

## Nc1nnc(-c2cc(Cl)cc(Cl)c2)c(N)n1 [Example 42, 3,5-Diamino-6-(3,5-dichlorophenyl)-1,2,4-triazine]
Sodium channel [1]; [7]
  IC50: 155 µM
[3]
  inhibition at 50 µM: 99%
other
  melting point: 223 to 225 °C

## CCn1nc(-c2cc(Cl)cc(Cl)c2Cl)c(N)nc1=N [Example 50]
Sodium channel [1]; Table 8
  pIC50 (uptake of [14C]guanidine): 5.52 ± 0.03
  Hill (uptake of [14C]guanidine): 0.93
Sodium channel [1]; [10]
  IC50: 3 µM
other
  melting point: 269 to 271 °C

## Nc1nnc(-c2ccccc2OC(F)(F)F)c(N)n1 [Example 51, 3,5-Diamino-6-(2-trifluoromethoxyphenyl)-1,2,4-triazine]
Sodium channel [1]; Table 8
  pIC50 (uptake of [14C]guanidine): 2.76 ± 0.11
  Hill (uptake of [14C]guanidine): 1.22
Sodium channel [1]; [10]
  IC50: 1740 µM
other
  melting point: 148 to 150 °C
